Reference: PubChem BioAssay AID330 (DTP/NCI, 2004)
Where “and” joins values, the source holds several entries; their conditions need not be identical. Equal entries are not always repeated. Toxic doses and inconclusive results are not listed. The calls were made as follows: active = survival T/C of 150% or more; inactive = T/C below 125% in these data.

Test system: P388 leukemia ip, CD2F1 mice, survival T/C
Experiment: NCI In Vivo Anticancer Drug Screen. Data for tumor model P388 Leukemia (intraperitoneal) in CD2F1 (CDF1) mice
Details: endpoint: median survival time, higher = longer survival
Summary of the method: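 Mice carrying the transplanted tumor received test compound or vehicle. Survival was recorded in each group, and the value is the treated-group measurement divided by that of the vehicle-treated control group.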

[1] = dose: 50.0 mg/kg/injection, schedule: Q01DX009 (ip), vehicle: saline with Tween-80
[2] = dose: 50.0 mg/kg/injection, schedule: Q01DX009 (ip), vehicle: Klucel (hydroxypropylcellulose) (HPC)
[3] = dose: 100.0 mg/kg/injection, schedule: Q01DX009 (ip), vehicle: Klucel (hydroxypropylcellulose) (HPC)
[4] = dose: 200.0 mg/kg/injection, schedule: Q01DX009 (ip), vehicle: Klucel (hydroxypropylcellulose) (HPC)
[5] = dose: 50.0 mg/kg/injection, schedule: Q01DX005 (ip), vehicle: Klucel (hydroxypropylcellulose) (HPC)
[6] = dose: 100.0 mg/kg/injection, schedule: Q01DX005 (ip), vehicle: Klucel (hydroxypropylcellulose) (HPC)
[7] = dose: 200.0 mg/kg/injection, schedule: Q01DX005 (ip), vehicle: Klucel (hydroxypropylcellulose) (HPC)
[8] = dose: 100.0 mg/kg/injection, schedule: Q01DX009 (ip), vehicle: saline with Tween-80
[9] = dose: 200.0 mg/kg/injection, schedule: Q01DX009 (ip), vehicle: saline with Tween-80
[10] = dose: 50.0 mg/kg/injection, schedule: Q01DX005 (ip), vehicle: saline with Tween-80
[11] = dose: 100.0 mg/kg/injection, schedule: Q01DX005 (ip), vehicle: saline with Tween-80

Measured: T/C

COc1cccc2cc3c(NCCCN(C)C)nnc(NCCCN(C)C)c3cc12
inactive: dose: 7.5 mg/kg/injection, schedule: Q01DX005 (ip), vehicle: saline 105 % of control | dose: 15.0 mg/kg/injection, schedule: Q01DX005 (ip), vehicle: saline 98 % of control

Cn1c(=O)ccc2c(=O)c3ccccc3oc21
inactive: dose: 100.0 mg/kg/injection, schedule: Q04DX002 (ip), vehicle: saline with Tween-80 100 % of control | dose: 200.0 mg/kg/injection, schedule: Q04DX002 (ip), vehicle: saline with Tween-80 110 % of control | dose: 400.0 mg/kg/injection, schedule: Q04DX002 (ip), vehicle: saline with Tween-80 107 % of control

CCNC(=O)OCc1c(-c2ccccc2)nc2n1CCS2
inactive: dose: 6.25 mg/kg/injection, schedule: Q01DX001 (ip), vehicle: Klucel (hydroxypropylcellulose) (HPC) 104 % of control | dose: 12.5 mg/kg/injection, schedule: Q01DX001 (ip), vehicle: Klucel (hydroxypropylcellulose) (HPC) 98 % of control and 115 % of control | dose: 25.0 mg/kg/injection, schedule: Q01DX001 (ip), vehicle: Klucel (hydroxypropylcellulose) (HPC) 114 % of control and 93 % of control | dose: 50.0 mg/kg/injection, schedule: Q01DX001 (ip), vehicle: Klucel (hydroxypropylcellulose) (HPC) 101 % of control and 106 % of control | dose: 75.0 mg/kg/injection, schedule: Q01DX001 (ip), vehicle: Klucel (hydroxypropylcellulose) (HPC) 108 % of control

CCN1c2ccccc2CC(CCN(C)Cc2ccccc2)(C(N)=O)c2ccccc21 (stereo not given)
inactive: dose: 12.5 mg/kg/injection, schedule: Q01DX009 (ip), vehicle: saline with Tween-80 92 % of control | dose: 25.0 mg/kg/injection, schedule: Q01DX009 (ip), vehicle: saline with Tween-80 99 % of control | [1] 100 % of control

CCN(CC)C(Cl)=Nc1ccc(Cl)cc1
inactive: [2] 94 % of control | [3] 100 % of control | [4] 94 % of control

O=C1c2ccccc2C(=O)N1OCc1ccccc1[N+](=O)[O-]
inactive: [5] 102 % of control | [6] 101 % of control | [7] 90 % of control

CCN(CC)CCSC1CC2CC(C1C)C2(C)C (stereo not given)
inactive: [5] 99 % of control | [6] 109 % of control | [7] 104 % of control

O=C1NC(c2ccccc2)(c2ccccc2)C(=O)N1CCS
inactive: dose: 25.0 mg/kg/injection, schedule: Q04DX003 (ip), vehicle: Klucel (hydroxypropylcellulose) (HPC) 99 % of control and 106 % of control | dose: 50.0 mg/kg/injection, schedule: Q04DX003 (ip), vehicle: Klucel (hydroxypropylcellulose) (HPC) 100 % of control | dose: 100.0 mg/kg/injection, schedule: Q04DX003 (ip), vehicle: Klucel (hydroxypropylcellulose) (HPC) 100 % of control and 114 % of control | dose: 200.0 mg/kg/injection, schedule: Q04DX003 (ip), vehicle: Klucel (hydroxypropylcellulose) (HPC) 104 % of control and 108 % of control | dose: 400.0 mg/kg/injection, schedule: Q04DX003 (ip), vehicle: Klucel (hydroxypropylcellulose) (HPC) 112 % of control and 114 % of control

Cc1ccc(S(=O)c2cc(C(C)(C)C)cc(C(C)(C)C)c2O)cc1 (stereo not given)
inactive: [1] 103 % of control | [8] 110 % of control | [9] 88 % of control

C=CCOc1c(C=O)cccc1OC
inactive: dose: 25.0 mg/kg/injection, schedule: Q01DX005 (ip), vehicle: saline with Tween-80 101 % of control | [10] 100 % of control | [11] 108 % of control

O=C(Nc1cccc2c1C(=O)c1cccc(Nc3ccc(NC(=O)c4ccccc4)c4c3C(=O)c3ccccc3C4=O)c1C2=O)c1ccccc1
inactive: [10] 95 % of control | [11] 89 % of control | dose: 200.0 mg/kg/injection, schedule: Q01DX005 (ip), vehicle: saline with Tween-80 93 % of control

Nc1nc(/C=C(/O)c2ccccc2)c2ncn(C3OC(CO)C(O)C3O)c2n1 (stereo not given)
inactive: [1] 106 % of control | [8] 103 % of control | [9] 114 % of control

CCOC(=O)NC(=O)c1c(C)oc(C)cc1=O
inactive: [2] 118 % of control | [3] 115 % of control | [4] 107 % of control

C(=NCCC[Si]12OCCN(CCO1)CCO2)c1ccccc1
inactive: [5] 105 % of control | [6] 98 % of control | [7] 102 % of control

COc1ccc(/C=C/C(C)=O)c(OC)c1
inactive: dose: 100.0 mg/kg/injection, schedule: Q01DX001 (ip), vehicle: Klucel (hydroxypropylcellulose) (HPC) 108 % of control | dose: 200.0 mg/kg/injection, schedule: Q01DX001 (ip), vehicle: Klucel (hydroxypropylcellulose) (HPC) 101 % of control

CC1=NN(c2ccc(S(=O)(=O)O)cc2)C(=O)C1N=Nc1ccc(-c2ccc(N=Nc3ccc(OS(=O)(=O)c4ccc(C)cc4)cc3)c(S(=O)(=O)O)c2)cc1 (stereo not given)
inactive: dose: 50.0 mg/kg/injection, schedule: Q01DX009 (ip), vehicle: saline 100 % of control | dose: 100.0 mg/kg/injection, schedule: Q01DX009 (ip), vehicle: saline 100 % of control | dose: 200.0 mg/kg/injection, schedule: Q01DX009 (ip), vehicle: saline 97 % of control
